# Experiments:
# [1] = target: T1, PBP3 from Pseudomonas aeruginosa (PAO1) (Pseudomonas aeruginosa, UniProt G3XD46); test: Bocillin-FL fluorescence polarization competition binding, P. aeruginosa PBP3; conditions: Binding affinity to P. aeruginosa PBP3; fluorescence polarization competition binding assay using Bocillin-FL; read-out: P. aeruginosa PBP3 Potency
# T1 construct: made in house
# Procedure, shortened: (§1)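 Purified PBP was preincubated with inhibitor (E. coli PBP3 1.5 μM, 30 min; P. aeruginosa PBP3 0.75 μM, A. baumannii PBP3 0.2 μM and PBP1a 1 μM, 15 min), then Bocillin-FL (0.1 μM; 0.05 μM for PBP1a) added and FP read up to 60 min. EC50 = 50% loss of bound probe.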
# [2] = system: P. aeruginosa (ΔmexAB-oprM); test: Broth microdilution MIC in CAMHB; assay type: cell-based; conditions: Pseudomonas aeruginosa; read-out: MIC P. aeruginosa ΔmexAB-oprM
# E. coli ATCC 25922 = test: microbe, parasite or virus in culture; assay type: cell-based; conditions: Escherichia coli, ATCC25922, read-out: MIC E. coli 25922
# A. baumannii ATCC 19606 = test: microbe, parasite or virus in culture; assay type: cell-based; conditions: Acinetobacter baumannii, ATCC19606, read-out: MIC, A. baumannii ATCC 19606
# N. gonorrhoeae CDC-0197 = test: Liquid broth MIC in Fastidious broth; conditions: Neisseria gonorrhoeae, CDC0197, read-out: Minimum Inhibitory Concentration (MIC), N. gonorrhoeae CDC-0197
# E. coli AG100A = test: Broth microdilution MIC in CAMHB; assay type: cell-based; conditions: Escherichia coli, read-out: MIC E. coli AG100A
# N. gonorrhoeae WHO M = test: Liquid broth MIC in Fastidious broth; conditions: Neisseria gonorrhoeae, read-out: Minimum Inhibitory Concentration (MIC), N. gonorrhoeae WHO M
# [3] = target: T2, PBP3 from Escherichia coli (K-12) (Escherichia coli, UniProt P0AD68); test: Bocillin-FL fluorescence polarization competition binding, E. coli PBP3
# T2 construct: made in house
# Procedure, shortened: as §1
# [4] = system: N. gonorrhoeae ATCC 49226; test: Liquid broth MIC in Fastidious broth; conditions: Neisseria gonorrhoeae, ATCC49226, read-out: Minimum Inhibitory Concentration (MIC), N. gonorrhoeae ATCC 49226
# N. gonorrhoeae WHO X = test: Liquid broth MIC in Fastidious broth; conditions: Neisseria gonorrhoeae, read-out: Minimum Inhibitory Concentration (MIC), N. gonorrhoeae WHO X
# K. pneumoniae 848844 = test: microbe, parasite or virus in culture; assay type: cell-based; conditions: Klebsiella pneumoniae, 848844, read-out: MIC K. pneumoniae 848844
# N. gonorrhoeae WHO Q = test: Liquid broth MIC in Fastidious broth; conditions: Neisseria gonorrhoeae, read-out: Minimum Inhibitory Concentration (MIC), N. gonorrhoeae WHO Q
# T1 sequence (G3XD46 whole entry): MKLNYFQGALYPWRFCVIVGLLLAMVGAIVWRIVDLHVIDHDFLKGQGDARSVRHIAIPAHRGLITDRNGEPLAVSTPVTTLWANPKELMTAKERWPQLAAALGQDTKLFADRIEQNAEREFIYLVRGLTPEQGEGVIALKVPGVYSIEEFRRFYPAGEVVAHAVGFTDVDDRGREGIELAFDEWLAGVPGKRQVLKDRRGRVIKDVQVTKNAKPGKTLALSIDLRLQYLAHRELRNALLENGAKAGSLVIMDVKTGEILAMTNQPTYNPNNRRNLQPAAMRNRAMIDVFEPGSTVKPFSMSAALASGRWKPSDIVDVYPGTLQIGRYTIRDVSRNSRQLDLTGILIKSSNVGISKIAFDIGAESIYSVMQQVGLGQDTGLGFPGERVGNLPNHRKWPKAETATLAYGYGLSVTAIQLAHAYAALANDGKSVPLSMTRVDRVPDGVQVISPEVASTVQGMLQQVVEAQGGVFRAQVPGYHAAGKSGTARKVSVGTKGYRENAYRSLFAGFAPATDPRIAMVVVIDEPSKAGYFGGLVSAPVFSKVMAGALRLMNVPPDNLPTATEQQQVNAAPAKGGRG
# T2 sequence (P0AD68 1-577): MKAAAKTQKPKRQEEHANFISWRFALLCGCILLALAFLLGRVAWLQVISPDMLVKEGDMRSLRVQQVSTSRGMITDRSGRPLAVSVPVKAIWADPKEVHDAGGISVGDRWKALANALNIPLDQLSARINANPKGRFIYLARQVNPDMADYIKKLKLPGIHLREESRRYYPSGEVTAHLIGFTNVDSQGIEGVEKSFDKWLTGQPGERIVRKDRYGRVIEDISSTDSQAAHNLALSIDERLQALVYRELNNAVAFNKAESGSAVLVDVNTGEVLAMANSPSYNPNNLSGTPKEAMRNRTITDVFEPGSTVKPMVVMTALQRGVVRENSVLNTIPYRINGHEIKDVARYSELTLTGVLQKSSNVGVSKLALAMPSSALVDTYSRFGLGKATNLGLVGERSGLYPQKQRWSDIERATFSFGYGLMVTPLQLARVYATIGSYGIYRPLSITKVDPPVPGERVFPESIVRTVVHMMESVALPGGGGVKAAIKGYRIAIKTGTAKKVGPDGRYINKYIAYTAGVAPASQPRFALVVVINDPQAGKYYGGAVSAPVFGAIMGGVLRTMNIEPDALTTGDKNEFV
SMILES,IC50 [1],MIC [2],MIC (E. coli ATCC 25922),MIC (A. baumannii ATCC 19606),MIC (N. gonorrhoeae CDC-0197),MIC (E. coli AG100A),MIC (N. gonorrhoeae WHO M),EC50 [3],MIC [4],MIC (N. gonorrhoeae WHO X),MIC (K. pneumoniae 848844),MIC (N. gonorrhoeae WHO Q)
"CS(=O)(=O)NC(C(=O)N[C@H]1Cc2cccc(C(=O)O)c2OB1O)c1ccc(P(=O)(O)O)cc1 (stereo partly drawn) [Example 59, (3R)-2-hydroxy-3-(2-(methylsulfonamido)-2-(4-phosphonophenyl)acetamido)-3,4-dihydro-2H-benzo[e][1,2]oxaborinine-8-carboxylic acid]",> 250 µM,> 128 µg/mL,> 128 µg/mL,> 128 µg/mL,16 to 32 µg/mL,> 128 µg/mL,4 to 8 µg/mL,> 250 µM,16 to 32 µg/mL,16 to 32 µg/mL,> 128 µg/mL,16 to 32 µg/mL
"CC(C)S(=O)(=O)NC(C(=O)N[C@H]1Cc2cccc(C(=O)O)c2OB1O)c1ccc(P(=O)(O)O)cc1 (stereo partly drawn) [Example 60, (3R)-2-hydroxy-3-(2-((1-methylethyl)sulfonamido)-2-(4-phosphonophenyl)acetamido)-3,4-dihydro-2H-benzo[e][1,2]oxaborinine-8-carboxylic acid]",50 to 250 µM,> 128 µg/mL,> 128 µg/mL,> 128 µg/mL,16 to 32 µg/mL,> 128 µg/mL,4 to 8 µg/mL,> 250 µM,16 to 32 µg/mL,16 to 32 µg/mL,> 128 µg/mL,16 to 32 µg/mL
"O=C(O)c1cccc2c1OB(O)[C@@H](NC(=O)C(NS(=O)(=O)C1CC1)c1ccc(P(=O)(O)O)cc1)C2 (stereo partly drawn) [Example 61, (3R)-3-(2-(cyclopropanesulfonamido)-2-(4-phosphonophenyl)acetamido)-2-hydroxy-3,4-dihydro-2H-benzo[e][1,2]oxaborinine-8-carboxylic acid]",10 to 50 µM,> 128 µg/mL,> 128 µg/mL,> 128 µg/mL,16 to 32 µg/mL,> 128 µg/mL,16 to 32 µg/mL,50 to 250 µM,16 to 32 µg/mL,16 to 32 µg/mL,> 128 µg/mL,16 to 32 µg/mL
"O=C1CC[C@@H](C(=O)NC(C(=O)N[C@H]2Cc3cccc(C(=O)O)c3OB2O)c2ccc(P(=O)(O)O)cc2)N1 (stereo partly drawn) [Example 64, (3R)-2-hydroxy-3-(2-((S)-5-oxopyrrolidine-2-carboxamido)-2-(4-phosphonophenyl)acetamido)-3,4-dihydro-2H-benzo[e][1,2]oxaborinine-8-carboxylic acid]",50 to 250 µM,> 128 µg/mL,> 128 µg/mL,> 128 µg/mL,4 to 8 µg/mL,> 128 µg/mL,1 to 2 µg/mL,50 to 250 µM,4 to 8 µg/mL,16 to 32 µg/mL,> 128 µg/mL,16 to 32 µg/mL
"CC(=O)N1CCC[C@H]1C(=O)NC(C(=O)N[C@H]1Cc2cccc(C(=O)O)c2OB1O)c1ccc(P(=O)(O)O)cc1 (stereo partly drawn) [Example 65, (3R)-3-(2-((S)-1-acetylpyrrolidine-2-carboxamido)-2-(4-phosphonophenyl)acetamido)-2-hydroxy-3,4-dihydro-2H-benzo[e][1,2]oxaborinine-8-carboxylic acid]",50 to 250 µM,> 128 µg/mL,> 128 µg/mL,> 128 µg/mL,16 to 32 µg/mL,> 128 µg/mL,4 to 8 µg/mL,> 250 µM,16 to 32 µg/mL,16 to 32 µg/mL,> 128 µg/mL,16 to 32 µg/mL
CN1CCC[C@H]1C(=O)NC(C(=O)N[C@H]1Cc2cccc(C(=O)O)c2OB1O)c1ccc(P(=O)(O)O)cc1 (stereo partly drawn) [Example 66],10 to 50 µM,32 to 64 µg/mL,> 128 µg/mL,> 128 µg/mL,16 to 32 µg/mL,32 to 64 µg/mL,4 to 8 µg/mL,50 to 250 µM,16 to 32 µg/mL,16 to 32 µg/mL,> 128 µg/mL,16 to 32 µg/mL
"O=C(O)c1cccc2c1OB(O)[C@@H](NC(=O)C(NC(=O)C(F)(F)F)c1ccc(P(=O)(O)O)cc1)C2 (stereo partly drawn) [Example 172, (3R)-2-hydroxy-3-(2-(4-phosphonophenyl)-2-(2,2,2-trifluoroacetamido)acetamido)-3,4-dihydro-2H-benzo[e][1,2]oxaborinine-8-carboxylic acid]",50 to 250 µM,> 128 µg/mL,> 128 µg/mL,> 128 µg/mL,16 to 32 µg/mL,> 128 µg/mL,4 to 8 µg/mL,> 250 µM,16 to 32 µg/mL,16 to 32 µg/mL,> 128 µg/mL,16 to 32 µg/mL
"O=C(O)c1cccc2c1OB(O)[C@@H](NC(=O)[C@H](NC(=O)[C@@H]1CCCN1)c1ccc(P(=O)(O)O)cc1)C2 [Example 173, (R)-2-hydroxy-3-((R)-2-(4-phosphonophenyl)-2-((S)-pyrrolidine-2-carboxamido)acetamido)-3,4-dihydro-2H-benzo[e][1,2]oxaborinine-8-carboxylic acid]",10 to 50 µM,32 to 64 µg/mL,> 128 µg/mL,> 128 µg/mL,16 to 32 µg/mL,32 to 64 µg/mL,4 to 8 µg/mL,50 to 250 µM,16 to 32 µg/mL,16 to 32 µg/mL,> 128 µg/mL,16 to 32 µg/mL
"O=C(O)c1cccc2c1OB(O)[C@@H](NC(=O)C(NC(=O)c1ccc[nH]c1=O)c1ccc(P(=O)(O)O)cc1)C2 (stereo partly drawn) [Example 174, (3R)-2-hydroxy-3-(2-(2-oxo-1,2-dihydropyridine-3-carboxamido)-2-(4-phosphonophenyl)acetamido)-3,4-dihydro-2H-benzo[e][1,2]oxaborinine-8-carboxylic acid]",10 to 50 µM,32 to 64 µg/mL,> 128 µg/mL,> 128 µg/mL,16 to 32 µg/mL,> 128 µg/mL,1 to 2 µg/mL,50 to 250 µM,4 to 8 µg/mL,16 to 32 µg/mL,> 128 µg/mL,16 to 32 µg/mL
"O=C(O)c1cccc2c1OB(O)[C@@H](NC(=O)[C@H](NC(=O)c1c[nH]ccc1=O)c1ccc(P(=O)(O)O)cc1)C2 [Example 175, (R)-2-hydroxy-3-((R)-2-(4-oxo-1,4-dihydropyridine-3-carboxamido)-2-(4-phosphonophenyl)acetamido)-3,4-dihydro-2H-benzo[e][1,2]oxaborinine-8-carboxylic acid]",< 10 µM,8 to 16 µg/mL,32 to 64 µg/mL,> 128 µg/mL,4 to 8 µg/mL,32 to 64 µg/mL,< 1 µg/mL,< 10 µM,1 to 2 µg/mL,16 to 32 µg/mL,32 to 64 µg/mL,4 to 8 µg/mL

# Reference: US20240270762A1, “PENICILLIN-BINDING PROTEIN INHIBITORS” (priority 2021, published 2024)
